Test results reported in patent US20140094465A1, “Compounds as S-Nitrosoglutathione Reductase Inhibitors” (N30 PHARMACEUTICALS, INC., priority 2011, published 2014).

What follows are compounds tested against T1, S-nitrosoglutathione reductase (GSNOR) (Homo sapiens, UniProt P11766) (assay: GSNOR assay (inhibition of GSNOR activity, NADH absorbance at 340 nm)). Conditions: GSNOR inhibitor activity, Tables 1-6; read-out: IC50 range.
T1 construct: made in house; host or cells: E. coli
T1 sequence (P11766 whole entry): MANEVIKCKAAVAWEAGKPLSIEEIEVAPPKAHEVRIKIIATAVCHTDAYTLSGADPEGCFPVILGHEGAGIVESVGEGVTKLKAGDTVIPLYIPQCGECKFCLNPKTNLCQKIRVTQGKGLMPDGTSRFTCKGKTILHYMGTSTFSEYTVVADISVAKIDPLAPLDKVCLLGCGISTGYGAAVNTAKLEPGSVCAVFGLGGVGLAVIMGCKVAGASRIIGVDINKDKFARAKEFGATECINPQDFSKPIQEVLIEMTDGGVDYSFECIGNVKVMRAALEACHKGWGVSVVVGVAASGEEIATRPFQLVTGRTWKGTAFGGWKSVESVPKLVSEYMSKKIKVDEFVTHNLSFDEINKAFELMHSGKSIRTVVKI
Format: biochemical
Summary of the method: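 Recombinant GSNOR purified from E. coli, tag removed. Final conditions: 100 mM NaPO4 pH 7.4, 0.240 mM GSNO, 0.300 mM NADH, 0.5 μg/mL enzyme, 1% DMSO; NADH loss followed as 340 nm absorbance change over 3 min at 25 °C. Compounds 100–0.003 μM, triplicate; IC50 by curve analysis.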
For `O=C(O)c1ccc(-c2ccc3cc(O)ccc3n2)c(Cl)c1` [Compound I-8, 3-chloro-4-(6-hydroxyquinolin-2-yl)benzoic acid], the IC50 was less than 100 nM. `O=C(O)c1ccc(-c2cc(F)c3cc(O)ccc3c2)cc1` [III-39, 4-(4-fluoro-6-hydroxynaphthalen-2-yl)benzoic acid] was tested, and the IC50 was less than 100 nM. For `Cc1oc2cc(O)ccc2c(=O)c1-c1ccc(C(=O)O)cc1` [IV-5], the IC50 was 100 to 1000 nM. With `Cc1cc2cc(O)ccc2nc1-c1ccc(-c2nnn[nH]2)cc1` [Compound I-2] the IC50 was less than 100 nM. With `Cc1cc(C(=O)O)ccc1-c1ccc2c(F)c(O)ccc2c1` [III-33] the IC50 was less than 100 nM. `O=C(O)c1ccc(-c2cc3ccc(O)cc3cc2F)c(Cl)c1` [III-21, 3-chloro-4-(3-fluoro-6-hydroxynaphthalen-2-yl)benzoic acid] showed an IC50 of less than 100 nM. In the case of `COCc1oc2cc(O)ccc2c(=O)c1-c1ccc(C(=O)O)cc1` [IV-2], the IC50 is reported as 100 to 1000 nM. `O=C(O)C1CC=C(c2nc3ccc(O)cc3nc2C(F)(F)F)CC1` (centres unmarked) [II-12] gave an IC50 of less than 100 nM. In the case of `Cc1oc2cc(O)ccc2c(=O)c1-c1ccc(-c2nnn[nH]2)cc1` [IV-28], the IC50 is reported as less than 100 nM. For `O=c1[nH]nc(-c2ccc(-c3ccc4cc(O)ccc4n3)cc2)o1` [Compound I-24], the IC50 was less than 100 nM. For `O=C(O)c1ccc(CS(=O)(=O)c2ccc(O)c(F)c2)c(F)c1` [VI-20, 3-fluoro-4-(((3-fluoro-4-hydroxyphenyl)sulfonyl)methyl)benzoic acid], the IC50 was less than 100 nM. Work on `O=C(O)C1CCN(c2ccc3cc(O)ccc3n2)CC1` [Compound I-5] yielded an IC50 of 1000 to 10000 nM. For `O=C(O)c1ccc(NC(=O)c2ccc(O)cc2C(F)(F)F)cc1` [VI-14, 4-(4-hydroxy-2-(trifluoromethyl)benzamido)benzoic acid], the IC50 was 100 to 1000 nM. Compound `O=C(NO)c1ccc(-c2c(C(F)(F)F)oc3cc(O)ccc3c2=O)cc1` [IV-37] has an IC50 of 100 to 1000 nM. Work on `CS(=O)(=O)NC(=O)c1ccc(-c2c(C(F)(F)F)oc3cc(O)ccc3c2=O)cc1` [IV-32] yielded an IC50 of 100 to 1000 nM. With `O=C(O)c1ccc(Oc2c(-c3ccc(O)cc3)oc3cc(O)ccc3c2=O)cc1` [Compound V-10, 4-(7-hydroxy-2-(4-hydroxyphenyl)-4-oxo-4H-chromen-3-yloxy)benzoic acid] the IC50 was 1000 to 10000 nM. For `O=C(O)c1ccc(-c2ccc3cc(O)ccc3n2)cc1F` [Compound I-10], the IC50 was less than 100 nM. Compound `O=C(O)c1ccc(-c2ccc3cc(O)ccc3c2)c(C(F)(F)F)c1` [III-20, 4-(6-hydroxynaphthalen-2-yl)-3-(trifluoromethyl)benzoic acid] has an IC50 of less than 100 nM. Compound `O=c1c(-c2ccc(-c3nnn[nH]3)cc2)coc2cc(O)ccc12` [IV-44] has an IC50 of less than 100 nM. In the case of `COc1ccc(-c2oc3cc(O)ccc3c(=O)c2Oc2ccc(C(=O)O)cc2)cc1` [Compound V-9, 4-(7-hydroxy-2-(4-methoxyphenyl)-4-oxo-4H-chromen-3-yloxy)benzoic acid], the IC50 is reported as 1000 to 10000 nM. `O=c1[nH]nc(-c2ccc(-c3ccc4cc(O)ccc4n3)cc2)s1` [Compound I-33] showed an IC50 of 100 to 1000 nM. Compound `O=C(O)c1ccc(-c2ccc3cc(O)ccc3c2)cc1O` [III-35, 2-hydroxy-4-(6-hydroxynaphthalen-2-yl)benzoic acid] has an IC50 of less than 100 nM. `O=c1nc(-c2ccc(-c3ccc4cc(O)ccc4n3)cc2)[nH]s1` [Compound I-29] showed an IC50 of 100 to 1000 nM. Work on `Oc1ccc2nc(-c3ccc(-c4nn[nH]n4)cc3)c(C(F)(F)F)nc2c1` [II-10] yielded an IC50 of less than 100 nM. `O=C(O)c1ccc(CC(=O)c2c(F)cc(O)cc2F)c(F)c1` [VI-10, 4-(2-(2,6-difluoro-4-hydroxyphenyl)-2-oxoethyl)-3-fluorobenzoic acid] was tested, and the IC50 was 100 to 1000 nM.

Same assay, conditions: Table 7; GSNOR inhibition, IC50 range class a/b/c; read-out: IC50
`O=C(O)c1ccc(-c2nc(-c3ccc(O)cc3)cs2)cc1` [VII-1, 4-(4-(4-hydroxyphenyl)thiazol-2-yl)benzoic acid] was tested, and the IC50 was 1000 to 10000 nM. For `CC(C)Cn1c(-c2ccc(O)cc2)ccc1-c1ccc(C(=O)O)cc1` [VII-29, 4-(5-(4-hydroxyphenyl)-1-isobutyl-1H-pyrrol-2-yl)benzoic acid], the IC50 was less than 100 nM. With `CC(C)CCn1c(-c2ccc(O)cc2)ccc1-c1ccc(C(=O)O)s1` [VII-27, 5-(5-(4-hydroxyphenyl)-1-isopentyl-1H-pyrrol-2-yl)thiophene-2-carboxylic acid] the IC50 was less than 100 nM.

Same assay, conditions: Table 8; GSNOR inhibition, IC50 range class a/b/c; read-out: IC50
With `O=C(O)c1ccc(-n2ccc3cc(O)ccc3c2=O)cc1` [VIII-3, 4-(6-hydroxy-1-oxoisoquinolin-2(1H)-yl)benzoic acid] the IC50 was less than 100 nM. Compound `O=C(O)c1ccc(-c2cc(=O)c3cc(O)ccc3[nH]2)c(Cl)c1` [VIII-9, 3-chloro-4-(6-hydroxy-4-oxo-1,4-dihydroquinolin-2-yl)benzoic acid] has an IC50 of 1000 to 10000 nM. `O=C1c2ccc(O)cc2CCN1[C@H]1CC[C@H](C(=O)O)CC1` [VIII-16, (trans)-4-(6-hydroxy-1-oxo-3,4-dihydroisoquinolin-2(1H)-yl)cyclohexanecarboxylic acid] was tested, and the IC50 was 1000 to 10000 nM.

The compounds below were run on dextran sodium sulfate (DSS)-induced IBD (assay: Acute prophylactic model of DSS-induced IBD). Conditions: oral 10 mg/kg/day for 10 days, prophylactic.
Format: in vivo, mouse
Text: Acute and chronic models of dextran sodium sulfate (DSS)-induced IBD in mice were used to explore efficacy of GSNORi against this disease. Acute and chronic DSS-induced IBD are widely used and well characterized models that induce pathological changes in the colon similar to those observed in the human disease. In these models and in human disease, epithelial cells within the crypts of the colon are disrupted, leading to dysfunction of the epithelial barrier and the ensuing tissue inflammation, edema, and ulceration. GSNORi therapy may benefit IBD by restoring s-nitrosoglutathione (GSNO) levels, and thus prevent or reverse the epithelial barrier dysfunction. Experimental IBD was induced by administration of DSS in the drinking water of male C57Bl/6 mice (N=8 to 10 mice per group) for 6 consecutive days. GSNORi was dosed orally at doses of 0.1 to 10 mg/kg/day for 10 days starting two days prior to and continuing two days post DSS exposure. […] Levels of circulating cytokines involved in inflammatory pathways were also assessed. The effect of GSNORi was compared to vehicle treated controls. […] Naïve mice (N=5) were also assessed as a normal tissue control.
For `O=C(O)c1ccc(-c2ccc3cc(O)ccc3n2)c(Cl)c1` [Compound I-8, 3-chloro-4-(6-hydroxyquinolin-2-yl)benzoic acid], the “decrease of percent of mice with severe colon injury scores via endoscopy” value was 44 % of vehicle control and the “decrease of percent of mice with severe colon injury scores via histopathology” value was 26 % of vehicle control.

These compounds were tested on cigarette smoke-induced COPD (assay: Subchronic (11 day) cigarette smoke exposure COPD model). Conditions: subchronic 11 day model, 1, 5, or 10 mg/kg/day.
Format: in vivo, mouse
Method: Infiltration of inflammatory cells into the bronchoalveolar lavage fluid (BALF) and BALF levels of chemokines involved in inflammation and tissue turnover/repair were measured to assess the influences of GSNOR inhibitors on some of the early events associated with the initiation and progression of COPD. […] In animal models, changes in lung pathology are only evident after extended (several months) duration of exposure to cigarette smoke, thus making chronic models prohibitive as effective screening tools. […] The key roles of inflammation in the initiation and progression of COPD, make these short duration models relevant for initial tests of efficacy of novel therapeutics. Female C57Bl/6 mice (N=10 per group) were exposed to cigarette smoke generated from Marlboro 100 cigarettes without filters. Exposure times were 25 min. on study day 1, 35 min. on study day 2, and 45 min. on study days 3 to 11. GSNOR inhibitors were administered one hour prior to smoke exposure on each day. GSNOR inhibitors were dosed orally at 1 to 10 mg/kg/day for 11 days. […] The effect of GSNOR inhibitors were compared to vehicle treated controls and expressed as percent inhibition of the cigarette smoke induced increases in BALF cell numbers. Roflumilast was used as the positive control for the study and was dosed at 5 mg/kg/day. A group of naïve mice (N=10) was exposed to air and dosed with vehicle as a negative control for the study.
`O=C(O)c1ccc(-c2ccc3cc(O)ccc3n2)c(Cl)c1` [Compound I-8, 3-chloro-4-(6-hydroxyquinolin-2-yl)benzoic acid] was tested, and the “dose response of effect” value was “no dose response of effect”.

Same assay, conditions: subchronic 11 day model; roflumilast 5 mg/kg/day
`O=C(O)c1ccc(-c2ccc3cc(O)ccc3n2)c(Cl)c1` [Compound I-8, 3-chloro-4-(6-hydroxyquinolin-2-yl)benzoic acid] was tested, and the “effects compared with roflumilast” value was “comparable to those of roflumilast”.
